Laboratory results published in PubChem BioAssay (NCI).
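Method: 48-hour compound exposure of cells in 96-well plates, five concentrations, linear interpolation of endpoints. GI50 marks 50% less growth. The concentration for full growth arrest is given as TGI.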

Legend:
Experiment in all cases: DTP human tumour cell line panel, 48 h
NCI-H460 lung = system: NCI-H460 lung
MDA-MB-231 breast = system: MDA-MB-231 breast
TK-10 renal = system: TK-10 renal
NCI/ADR-RES ovarian = system: NCI/ADR-RES ovarian
NCI-H23 lung = system: NCI-H23 lung
SN12C renal = system: SN12C renal
NCI-H522 lung = system: NCI-H522 lung
OVCAR-3 ovarian = system: OVCAR-3 ovarian
A498 renal = system: A498 renal
U251 CNS = system: U251 CNS

| Structure (SMILES) | TGI (NCI-H460 lung) | TGI (MDA-MB-231 breast) | TGI (TK-10 renal) | TGI (NCI/ADR-RES ovarian) | TGI (NCI-H23 lung) | TGI (SN12C renal) | TGI (NCI-H522 lung) | TGI (OVCAR-3 ovarian) | TGI (A498 renal) | TGI (U251 CNS) | GI50 (NCI-H460 lung) | GI50 (MDA-MB-231 breast) | GI50 (TK-10 renal) | GI50 (OVCAR-3 ovarian) | GI50 (SN12C renal) | GI50 (A498 renal) | GI50 (U251 CNS) | GI50 (NCI-H522 lung) | GI50 (NCI/ADR-RES ovarian) | GI50 (NCI-H23 lung) |
| --- | --- | --- | --- | --- | --- | --- | --- | --- | --- | --- | --- | --- | --- | --- | --- | --- | --- | --- | --- | --- |
| N#Cc1ccc(-c2nc(C#N)c(N)o2)cc1 | > 10 µM | > 10 µM | > 10 µM | > 10 µM | > 10 µM | > 10 µM | > 10 µM | – | – | – | – | – | – | – | – | – | – | – | – | – |
| O=c1nc(-c2ccccc2)c2c3c(cccn13)CCC2 | > 100 µM | – | > 100 µM | – | > 100 µM | > 100 µM | > 100 µM | > 100 µM | > 100 µM | > 100 µM | – | – | – | – | – | – | – | – | – | – |
| CCc1ccccc1NC(=O)C(=O)C(C(=O)c1ccc(OC)cc1)c1ccc(OC)cc1 (stereo not drawn) | > 100 µM | – | > 100 µM | – | > 100 µM | > 100 µM | > 100 µM | > 100 µM | > 100 µM | > 100 µM | – | – | – | – | – | – | – | – | – | – |
| COc1ccc(C2C(Cl)C(=O)N2n2cnc3ccccc3c2=O)cc1OC (stereo not drawn) | > 100 µM | – | > 100 µM | – | > 100 µM | > 100 µM | > 100 µM | > 100 µM | – | > 100 µM | – | – | – | – | – | – | – | – | – | – |
| COC(=O)c1nc(NN)[nH]c(=O)c1CCCCCc1c(C(=O)OC)[nH]c(NN)cc1=O | > 100 µM | – | > 100 µM | – | > 100 µM | > 100 µM | > 100 µM | > 100 µM | > 100 µM | > 100 µM | – | – | – | – | – | – | – | – | – | – |
| CC1=C(C(=O)NC2CCCCC2)CC(C(=O)NC2CCCCC2)=C(C)N1 | > 100 µM | > 100 µM | > 100 µM | – | > 100 µM | > 100 µM | > 100 µM | > 100 µM | > 100 µM | > 100 µM | – | – | – | – | – | – | – | – | – | – |
| COc1cc(-c2csc(NC(=O)c3cc(C(F)(F)F)cc(C(F)(F)F)c3)n2)cc(OC)c1OC | > 100 µM | > 100 µM | > 100 µM | – | – | > 100 µM | 5.05 µM | 19 µM | > 100 µM | > 100 µM | 2.97 µM | 2.72 µM | 2.49 µM | 2.98 µM | 2.78 µM | 2.63 µM | 2.7 µM | 1.4 µM | – | – |
| O=c1oc2ccccc2c(O)c1C=NC(=S)c1ccncc1 | > 100 µM | > 100 µM | > 100 µM | > 100 µM | > 100 µM | > 100 µM | – | > 100 µM | – | > 100 µM | – | – | – | – | – | – | – | – | – | – |
| O=C1[C@@H](c2ccc(Cl)cc2)[C@H]2CC=C[C@H]2N1O | – | – | > 100 µM | – | > 100 µM | > 100 µM | > 100 µM | > 100 µM | – | – | – | – | – | – | – | – | – | – | – | – |
| COc1ccc2nc(-c3ccccc3)cc(Nc3cccc(/C(C)=N\O)c3)c2c1 | > 100 µM | 7.62 µM | 9.69 µM | > 100 µM | > 100 µM | 35.4 µM | > 100 µM | – | 37.3 µM | 48.5 µM | 6.84 µM | 2.54 µM | 2.56 µM | – | 6.05 µM | 11.8 µM | 6.05 µM | 73.9 µM | 6.35 µM | 22.4 µM |
| COc1ccc(-n2nnc3c(sc4ccccc43)c2=O)cc1 | – | – | – | > 100 µM | > 100 µM | – | > 100 µM | – | – | – | – | – | – | – | – | – | – | > 100 µM | > 100 µM | > 100 µM |
| COC(=O)C1=CCON(c2ccccc2)C1c1ccccc1 (stereo not drawn) | > 100 µM | – | > 100 µM | – | > 100 µM | – | 93.8 µM | > 100 µM | – | > 100 µM | – | – | – | – | – | – | – | – | – | – |
| CON(C)C(=O)C(C)NC(=O)OCc1ccccc1 (stereo not drawn) | > 100 µM | – | > 100 µM | > 100 µM | > 100 µM | > 100 µM | – | > 100 µM | > 100 µM | > 100 µM | – | – | – | – | – | – | – | – | – | – |
| C[C@]12CC[C@@H]3c4ccc(O)c([N+](=O)[O-])c4CC[C@H]3[C@@H]1CC[C@@H]2NS(=O)(=O)c1ccc(C(F)(F)F)cc1 | 4.83 µM | 2.93 µM | 7.26 µM | 4.7 µM | 4.1 µM | 3.1 µM | 3.48 µM | – | 3.48 µM | 3.13 µM | 2.11 µM | 1.49 µM | 2.77 µM | – | 1.6 µM | 1.07 µM | 1.56 µM | 1.61 µM | 1.95 µM | 1.84 µM |
| Cc1cccc(NC(=O)c2sc3nc4c(cc3c2N)CCCC4)c1C | > 100 µM | > 100 µM | > 100 µM | – | > 100 µM | > 100 µM | > 100 µM | 0.871 µM | 0.981 µM | > 100 µM | 0.369 µM | 1.6 µM | 23.3 µM | 0.285 µM | 0.61 µM | 0.232 µM | 0.416 µM | 0.269 µM | – | 0.519 µM |
| C[n+]1cc2c3c(ccc2c2ccc4cc5c(cc4c21)OCO5)OCO3 | 3.7 µM | 1.98 µM | 2.65 µM | – | 2.18 µM | – | 1.41 µM | 0.758 µM | 3.12 µM | 1.28 µM | 1.29 µM | 0.63 µM | 1.33 µM | 0.278 µM | – | 1.54 µM | 0.331 µM | 0.3 µM | – | 0.72 µM |
| CSc1nc2c(c(O)c(C)c(=O)n2C2OC(COC(C)=O)C(OC(C)=O)C(OC(C)=O)C2OC(C)=O)c(=O)n1C (stereo not drawn) | > 100 µM | – | > 100 µM | – | > 100 µM | > 100 µM | > 100 µM | > 100 µM | > 100 µM | > 100 µM | – | – | – | – | – | – | – | – | – | – |
| CC(C)N(C(=O)C12C3C4C1C1C2C3C41C(O)C(C)(C)C)C(C)C (stereo not drawn) | – | – | – | – | – | > 50 µM | > 50 µM | > 50 µM | > 50 µM | > 50 µM | – | – | – | – | – | – | – | – | – | – |
| CCC1(Br)C(=O)NC(=O)N(C2CC(O)C(CO)O2)C1N=[N+]=[N-] (stereo not drawn) | > 100 µM | – | > 100 µM | – | > 100 µM | > 100 µM | > 100 µM | > 100 µM | > 100 µM | > 100 µM | – | – | – | – | – | – | – | – | – | – |
| COc1ccc([C@H]2CC(=O)N3CCCC3N2)cc1 (stereo partly drawn) | > 100 µM | – | > 100 µM | – | > 100 µM | > 100 µM | > 100 µM | – | > 100 µM | > 100 µM | – | – | – | – | – | – | – | – | – | – |
| N#CC(C#N)SCc1ccccc1 | > 41.6 µM | – | > 100 µM | > 100 µM | 89.1 µM | > 100 µM | 57.7 µM | > 100 µM | > 100 µM | 56.6 µM | – | – | – | – | – | – | – | – | – | – |
